Tests used:
[1] = test system: A549 human lung cancer cell line; experiment: MTT cell viability / cytotoxicity on A549; assay type: cell-based; conditions: for IC50: Homo sapiens, A549, A549 cell line, MTT, mean ± S.D. of three determinations
Experimental: (§1) In 75 cm^2 sterile plastic tissue culture flasks, the human lung adenocarcinoma A549 and the mouse fibroblast L929 cell lines were cultured in 90% RPMI (Sigma, Deisenhofen, Germany) media supplemented with 10% (v/v) FBS (Gibco, Paisley, UK) and adherent monolayers of penicillin/streptomycin (100 units/mL) from Gibco, Paisley, UK. These cells were cultured at 37 °C in an environment that was humidified and contained 5% CO2.
(§2) The MTT (3-(4,5-dimethylthiazol-2-yl)-2,5-diphenyltetrazolium bromide) method was applicated to assess the cell viability of L929, C6 and A549 cell lines against the tested compounds according to the reported data.[51] In 96-well plates with a flat bottom, the A549, C6, and L929 cells were cultivated at a density of 5 × 10^3 cells per well. […] After addition, they were incubated for a full day in culture wells. Following the incubation period, 20 μL of phosphate-buffered saline (PBS) (Gibco, Paisley, UK) containing 5 mg/mL MTT powder (Sigma-Aldrich, St. Louis, MO, USA) was added to each well. The medium was taken out of the plate and replaced with 100 μL of DMSO in each well to dissolve the dye. This was left for 2 to 4 h under the same conditions and then left for 10 min. At the conclusion of the procedure, purple formazan, the reduction product of the MTT agent, was formed by the mitochondrial dehydrogenase enzyme of intact cells. A microtiter plate reader (BioTek Plate Reader, Winooski, VT, USA) was used to measure the cells at 540 nm. Cell viability was measured as a percentage and contrasted with that of the cells in the control group. Half-maximal inhibitory concentration 50 (IC50) values were determined by repeating each concentration in three wells and identifying the drug concentrations that decreased the absorbance to 50% of control values. The medium control served as the basis for calculating the percentage of viable cells.

C6 rat glioma cell line = experiment: MTT cell viability / cytotoxicity on C6; assay type: cell-based; conditions: mean ± S.D. of three determinations
Experimental: as §2

[2] = test system: L929 murine fibroblast cell line; experiment: MTT cell viability / cytotoxicity on L929 (healthy cells); assay type: cell-based, mouse; conditions: mean ± S.D. of three determinations
Experimental: as §1, §2

A549 cells [3] = experiment: Early/late apoptosis by Annexin V-FITC/PI flow cytometry; assay type: cell-based, human; conditions: A549, IC50 dose, 24 h incubation
Experimental: Phosphatidylserine externalization, a marker of early apoptosis, was assessed using the FITC Annexin V apoptosis detection kit (BD Pharmingen, San Jose, CA, USA) on a BD FACSAria flow cytometer. Following their collection, the A549 and L929 cells were twice washed in ice-cold PBS before being resuspended in 100 μL of binding buffer. The cells were treated with a volume of 5 μL (5 μg/mL) of Annexin V-FITC and PI, and they were incubated for 15 min at room temperature (20–25 °C) in the dark. Following that, 400 μL of binding buffer was added to the combination samples, and FACSDiva version 6.1.1 was used to analyze the samples on a BD FACSAria flow cytometer.

caspase-3 = experiment: Caspase-3 activation in A549 cells; assay type: cell-based, human; conditions: A549, IC50 of the compounds, 24 h
Experimental: The Spectrofluorometric Caspase-3 Assay kit (BD Pharmingen, Franklin Lakes, NJ) was used to assess the activation of caspase-3. The purpose of the kit was to measure the early indicator of cells going through apoptosis, known as caspase-3 or the DEVD-cleaving activity. First, 1 × 10^6 cells/mL of cells were resuspended in cold cell lysis buffer, rinsed with PBS, and then allowed to sit on ice for 30 min. […] In each reaction, a well containing 0.2 mL of 1 x HEPES buffer was filled with […] of reconstituted AcDEVD-AMC, a synthetic tetrapeptide fluorogenic substrate for caspase-3 activity. Each reaction/well received 20 μL of cell lysate. The reaction mixtures were incubated at 37 °C for 1 h. Using a microplate reader (Perkin-Elmer/Victor/X3) with an excitation wavelength of 380 nm and an emission wavelength of 460 nm, the amount of AMC released from Ac-DEVD-AMC was quantified. When compared with controls, apoptotic cell lysates containing active caspase-3 produced a significant emission. […] For all doses, duplicate wells were used. This experiment was performed according to Yurttaş et al.[52]

A549 cells [4] = experiment: Mitochondrial membrane depolarization (JC-1, flow cytometry); assay type: cell-based, human; conditions: A549, IC50 concentration, 24 h
Experimental: Staining of cells with JC-1 was realized according to the manufacturer’s recommendations of BD, Pharmingen Flow cytometry kit. […] For this purpose, cells were seeded at an optimal density in six-well plates (not exceeding 1 × 10^6/mL cells). The cells were then incubated with the substances to be tested at the appropriate concentration and time. After the treatment, each cell suspension was taken into a 15 mL polystyrene centrifuge tube and the cells were centrifuged at 400g for 5 min and removed from the supernatant. 0.5 mL of a freshly prepared working solution was added to each pellet, and the solution was vortexed. The test cells were soaked in a JC-1 working solution at 37 °C for 10–15 min, and the cells were washed twice. In the first wash, 2 mL of 1X assay buffer was added and the cells were suspended sensitively. Then, the cells were centrifuged at 400g for 5 min and the supernatant was removed, carefully. In the second wash, 1 mL of 1X assay buffer was added and vortexed. After the cells were centrifuged at 400g for 5 min, each cell pellet was suspended in 0.5 mL 1X assay buffer and vortexed. Finally, the cell was analyzed by a flow cytometer.

A549 cells [5] = experiment: Cell cycle analysis by flow cytometry; assay type: cell-based, human; conditions: A549, 24 h incubation
Experimental: Following a 24 h incubation period with the compounds, a cell cycle analysis measurement methodology was implemented in compliance with the manufacturer’s instructions for A549 cells (BD, Biosciences). Next, the cells were immersed in citrate buffer for a short while. At room temperature, the cells were centrifuged for 5 min at 400 g. After the supernatant was decanted, 250 μL of solution A was added to the pellet, and it was allowed to sit at room temperature for 10 min. Solution B (200 μL) was then added, carefully mixed, and incubated at room temperature for 10 min. Solution C (200 μL) was then added. It was gently mixed, allowed to stand at 4 °C for 10 min in the dark, and then examined using BD Bioscience’s MODFID software on a flow cytometer. This method was applied in our previous study.[54]

MMP-9 enzyme = biological target: T1, MMP-9 enzyme (Homo sapiens, UniProt P14780); experiment: MMP-9 colorimetric inhibition assay; assay type: biochemical; conditions: for inhibition at 100 µg/mL: at 100 μg/mL
T1 construct: purchased EnzoLife Sciences Inc. (Farmingdale, New York, NY, USA)
Text: As described in our previous study,[36] the method was applied in exactly the same manner. EnzoLife Sciences Inc. provided MMP-9 colorimetric kits (Farmingdale, New York, NY, USA). The MMP Colorimetric Drug Discovery Kits are a comprehensive test technique that uses a thiopeptide (Ac-PLG-[2-mercapto-4-methyl-pentanoyl]-LG-OC2H5) as a chromogenic substrate to screen MMP inhibitors. Using a microplate reader (BioTek, PowerWave, Gen5 software, Winooski, VT, USA) at room temperature, the UV absorbance was measured at 412 nm. NNGH was employed as an inhibitor of control.

[6] = Mus musculus, L929, L929 healthy cell line

T1 sequence (P14780 107-444 limits assumed): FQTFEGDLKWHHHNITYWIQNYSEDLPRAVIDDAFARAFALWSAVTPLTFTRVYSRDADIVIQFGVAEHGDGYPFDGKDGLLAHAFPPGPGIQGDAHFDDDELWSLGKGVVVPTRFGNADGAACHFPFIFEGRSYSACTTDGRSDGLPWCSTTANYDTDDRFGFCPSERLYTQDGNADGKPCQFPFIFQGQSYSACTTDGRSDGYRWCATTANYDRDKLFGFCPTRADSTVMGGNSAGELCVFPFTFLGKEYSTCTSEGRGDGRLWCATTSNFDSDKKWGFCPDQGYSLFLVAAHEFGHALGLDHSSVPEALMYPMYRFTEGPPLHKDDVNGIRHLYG

Structure (SMILES) | IC50 [1] [µM] | IC50 (C6 rat glioma cell line) [µM] | IC50 [2, 6] [µM] | Q1: necrotic cells (A549 cells [3]) [%] | Q2: late apoptotic cells (A549 cells [3]) [%] | Q3: viable cells (A549 cells [3]) [%] | Q4: early apoptotic cells (A549 cells [3]) [%] | % (+): caspase-3 activity positive cells (caspase-3) [%] | % (−): caspase-3 activity negative cells (caspase-3) [%] | mitochondrial membrane depolarization % (A549 cells [4]) [%] | mitochondrial membrane polarization % (A549 cells [4]) [%] | % S (A549 cells [5]) [%] | G0/G1% (A549 cells [5]) [%] | G2/M % (A549 cells [5]) [%] | IC50 (MMP-9 enzyme) [µM] | inhibition at 100 µg/mL (MMP-9 enzyme) [%] | melting point [°C] | also measured
CC(=O)Nc1ccccc1OCc1nnc(SCC(=O)Nc2nc3ccc(F)cc3s2)o1 [Compound 4f, 2-[(5-((2-Acetamidophenoxy)methyl)-1,3,4-oxadiazol-2-yl)thio]-N-(6-fluorobenzothiazol-2-yl)acetamide] | 6.62 ± 0.32 | 13 ± 3.72 | 19.4 ± 0.89 | 26.25 | 6.7 | 58.53 | 8.51 | 3.4 | 97.1 | 13.03 | 85.97 | 0.0 | 63.53 | 36.47 | 24.5 ± 2.12 | > 75 | 207 to 209 | –
CC(=O)Nc1ccccc1OCc1nnc(SCC(=O)Nc2ccccc2)o1 [Compound 4h, 2-[(5-((2-Acetamidophenoxy)methyl)-1,3,4-oxadiazol-2-yl)thio]-N-phenylacetamide] | < 0.14 | > 1000 | 31.4 ± 1.76 | 26.94 | 7.28 | 53.94 | 11.84 | 2.7 | 97.5 | 8.75 | 90.74 | 0.0 | 89.66 | 10.34 | 1.65 ± 0.21 | > 75 | 188 to 191 | Q2 + Q4: early and late apoptotic cells (A549 cells [3]): 19.20%
CC(=O)Nc1ccccc1OCc1nnc(SCC(=O)Nc2ccc([N+](=O)[O-])cc2)o1 [Compound 4j, 2-[(5-((2-Acetamidophenoxy)methyl)-1,3,4-oxadiazol-2-yl)thio]-N-(4-nitrophenyl)acetamide] | < 8.8 | > 1000 | < 7.96 | – | – | – | – | – | – | – | – | – | – | – | 22 ± 1.41 | > 50 | 210 to 215 | inhibition of A549 at the lowest concentration tested ([1]; A549, MTT, lowest concentration tested): greater than 50%; SI (L929/A549) ([1]; selectivity index = IC50 on normal cells/IC50 on cancer cells): <1; IC50 ([2]; L929 healthy cell line): < 8.8 µM
